Test results: PubChem BioAssay AID1949 (Southern Research Institute, 2009)
Values after ≈ are worked out from the molar mass of the structure shown. Records with an inconclusive call do not appear. Active and inactive are the calls of the source. How the calls were made is not given here.

Tested on: M. tuberculosis H37Rv growth inhibition
Assay: Confirmatory growth inhibition assay against Mycobacterium tuberculosis H37Rv, potency (AID 1949);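 further: bacteria grown 7 days with compound before Alamar blue readout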

Structure (SMILES)	IC50
O=C(Oc1c(Cl)cc(Cl)c2cccnc12)c1ccccc1[N+](=O)[O-]	0.2 µg/mL (≈ 0.551 µM)
Cc1ccc(OCC(=O)c2ccccc2)cc1C	4.92 µg/mL (≈ 20.5 µM)
N#CC1=C(SCC(=O)Nc2ccccc2[N+](=O)[O-])NC(=O)CC1c1ccc(F)cc1 (configuration not stated)	6.76 µg/mL (≈ 15.9 µM)
Cc1ccccc1N1C(=O)NC(=O)/C(=C\c2ccc([N+](=O)[O-])s2)C1=O	6.22 µg/mL (≈ 17.4 µM)
CCN(CC)CC(O)Cn1c(C)c(-c2ccccc2)c2cc([N+](=O)[O-])ccc21 (configuration not stated)	29.4 µg/mL (≈ 77 µM)
Cc1[nH]n(-c2ccccc2)c(=S)c1C=Nc1ccccc1O	2.35 µg/mL (≈ 7.6 µM)
CCOC(=O)Cn1nnc(-c2ccc(OCc3ccccc3F)cc2)n1	0.28 µg/mL (≈ 0.786 µM)
N#Cc1cccc(NC(=O)Nc2cccc(Cl)c2)c1	6.26 µg/mL (≈ 23 µM)
Cc1ccc(Nc2nc(NCc3ccco3)c3ccccc3n2)cc1	1.44 µg/mL (≈ 4.36 µM)
COc1cc(CNCCCO)cc(Cl)c1OCc1ccc(Cl)cc1Cl	6.25 µg/mL (≈ 15.4 µM)
CCOC(=O)c1c(-c2ccc(C)o2)csc1NC(=S)NC(=O)N(C)C	1.85 µg/mL (≈ 4.85 µM)
COC(=O)C(C)Oc1ccc2c(=O)c(-c3ccc(Cl)cc3)coc2c1 (configuration not stated)	4.23 µg/mL (≈ 11.8 µM)
Cc1ccc(-c2cc(C(F)F)n3ncc(C(=O)N4CCc5ccccc5C4)c3n2)cc1	38.3 µg/mL (≈ 91.6 µM)
COC(=O)c1ccc(OC(=O)c2c(F)c(F)c(F)c(F)c2F)cc1	9.14 µg/mL (≈ 26.4 µM)
O=C(CCN1C(=O)C2C3C=CC(C3)C2C1=O)Oc1cccc2cccnc12 (configuration not stated)	14.8 µg/mL (≈ 40.7 µM)
CCN(CC)S(=O)(=O)c1ccc(Cl)c(C(=O)Oc2cccc3cccnc23)c1	2.45 µg/mL (≈ 5.85 µM)
O=C(CC12CC3CC(CC(C3)C1)C2)NC(=S)Nc1cccc(Br)c1	> 50 µg/mL (inactive)
O=C(CCCC(=O)N1CCC(Cc2ccccc2)CC1)N1CCC(Cc2ccccc2)CC1	12.1 µg/mL (≈ 27.1 µM)
CC(C(=O)OCc1ccccc1)n1cnc2scc(-c3ccc(Br)cc3)c2c1=O (configuration not stated)	1.51 µg/mL (≈ 3.22 µM)
Cc1cc(Cl)ccc1OCC(=O)Nc1ccc(N2CCN(C)CC2)c(Cl)c1	5.62 µg/mL (≈ 13.8 µM)
CCOC(=O)c1ccc(NC(=S)Nc2cccc([N+](=O)[O-])c2)cc1	0.23 µg/mL (≈ 0.666 µM)

Structure (SMILES)	IC50
CN(C)c1ccc(Nc2ncnc3ccc(Br)cc23)cc1	1.08 µg/mL (≈ 3.15 µM)
O=C(CC1(O)C(=O)N(CCc2ccccc2)c2ccc(Cl)cc21)c1ccncc1 (configuration not stated)	6.03 µg/mL (≈ 14.8 µM)
COc1cccc(CSc2nc3c(c(-c4ccccc4)c2C#N)CN(C)CC3)c1	22.8 µg/mL (≈ 56.9 µM)
Cc1ccnc(NC(=O)COc2ccc(C(C)(C)C)cc2Br)c1	5.61 µg/mL (≈ 14.9 µM)
Oc1c(CN2CCN(c3ccc(F)cc3)CC2)cc(Cl)c2cccnc12	1.07 µg/mL (≈ 2.88 µM)
COc1ccc(CCNc2nc(-c3ccccn3)cs2)cc1OC	0.72 µg/mL (≈ 2.11 µM)
c1ccc(CNc2cc(-n3cccn3)nc(-c3ccccc3)n2)cc1	> 50 µg/mL (inactive)
CCCCc1ccc(NC(=O)c2cc3cc(Br)cc(OC)c3oc2=O)cc1	0.69 µg/mL (≈ 1.6 µM)
Cc1nc2ccccc2n1CC(O)COc1ccc(C2C=CCC2)cc1 (configuration not stated)	1.22 µg/mL (≈ 3.5 µM)
c1cc2c3c(cccc3c1)NC1(CCCCCC1)N2	> 50 µg/mL (inactive)
O=C(COc1cccc2ccccc12)c1ccc(Cl)cc1	34 µg/mL (≈ 115 µM)
O=[N+]([O-])c1ccc(O)c(-c2nc3ccccc3s2)c1	> 50 µg/mL (inactive)
CCOC(=O)c1ccc(NC(=S)NC(NC(=O)c2ccc(Br)cc2)C(Cl)(Cl)Cl)cc1 (configuration not stated)	6.15 µg/mL (≈ 11.1 µM)
O=c1c2ccccc2[nH]c(=S)n1CCCN1CCN(c2cccc(Cl)c2)CC1	2.46 µg/mL (≈ 5.93 µM)
CC1(C)CC(=O)C2=C(C1)NC(Nc1nc3ccccc3o1)=NC2c1cccc(Br)c1 (configuration not stated)	3.24 µg/mL (≈ 6.96 µM)
Cc1ccc(N2C(=O)c3cccc4c(N5CCN(C)CC5)ccc(c34)C2=O)c2cccnc12	49.3 µg/mL (≈ 113 µM)
O=C(CCNc1ccc(Cc2ccncc2)cc1)c1ccc([N+](=O)[O-])cc1	4.37 µg/mL (≈ 12.1 µM)
CCc1ccc(OCC(=O)NNC(=O)c2cnccn2)c(Br)c1	1.12 µg/mL (≈ 2.95 µM)
O=C(OCc1ccccc1Cl)c1cc2ccccc2oc1=O	> 50 µg/mL (inactive)
CC(C)(C)c1cnc(NC(=O)c2ccccc2O)s1	1.06 µg/mL (≈ 3.84 µM)
CC(Nc1nc(N2CCN(C(=O)c3ccc(Cl)cc3)CC2)nc2ccccc12)c1ccccc1 (configuration not stated)	2.7 µg/mL (≈ 5.72 µM)

Structure (SMILES)	IC50
O=c1c2oc3cccc4c3n(c=2c(=O)c2ccccc12)CCC4	5.4 µg/mL (≈ 17.8 µM)
NC(N)=N/N=C/c1ccc(OCc2ccc(Cl)cc2Cl)cc1	11 µg/mL (≈ 32.6 µM)
CCCc1ccc(OC(=O)c2cc3ccccc3oc2=O)cc1	22.4 µg/mL (≈ 72.5 µM)
O=C(Nc1nc2c(Cl)cccc2s1)c1ccc([N+](=O)[O-])o1	1.58 µg/mL (≈ 4.88 µM)
CC(Oc1ccc(C(=O)NCCc2ccccc2)cc1)C(=O)OCc1ccccc1 (configuration not stated)	2.32 µg/mL (≈ 5.75 µM)
CC(C)(C)c1cc(Cl)c(O)c(NC(=S)NC(=O)c2cccc3ccccc23)c1	< 0.1 µg/mL
CCOC(=O)C(C)Oc1ccc2c(-c3ccc(OC)cc3)cc(=O)oc2c1 (configuration not stated)	1.35 µg/mL (≈ 3.66 µM)
CCCc1ccc(OC(=O)c2ccc(OC)c(OC)c2)cc1	2.37 µg/mL (≈ 7.89 µM)
Cc1cc2ncn(CCOc3ccc(Cl)cc3)c2cc1C	1.12 µg/mL (≈ 3.72 µM)
COC(=O)COc1ccc(/C=C(/C#N)c2nc3ccccc3[nH]2)cc1	0.67 µg/mL (≈ 2.01 µM)
CCN(CC)c1ccc(NC(=S)NCCc2ccc(OC)c(OC)c2)cc1	1.68 µg/mL (≈ 4.33 µM)
O=[N+]([O-])c1cccc(NC(=S)Nc2ccc(Cl)c(C(F)(F)F)c2)c1	2.62 µg/mL (≈ 6.97 µM)
O=C(NC1CCCCC1)c1cc2cc(Cl)cc(Cl)c2oc1=O	> 50 µg/mL (inactive)
Cc1cc(=O)oc2cc(OCC(=O)OC3CCCCC3)ccc12	1.47 µg/mL (≈ 4.65 µM)
COc1cc(CNCc2ccccc2)c(Br)cc1OC1CCCC1	10.5 µg/mL (≈ 27 µM)
S=C(NCCc1ccccc1)NCCc1ccc(Cl)cc1	9.95 µg/mL (≈ 31.2 µM)
CCOC(=O)c1ccc(NC(=S)NC(=O)CCc2ccccc2)cc1	1.76 µg/mL (≈ 4.94 µM)
CSc1ncc(C(=O)NCc2ccco2)cn1	3.04 µg/mL (≈ 12.2 µM)
COc1ccc(OCCC(=O)Nc2nc(C3CCCCC3)cs2)cc1	25.5 µg/mL (≈ 70.8 µM)
C=CCc1cc(Cl)ccc1OCCCNCCCC	5.34 µg/mL (≈ 18.9 µM)
CC1CCc2c(sc3nc4c5ccccc5c(N5CCN(CCO)CC5)nn4c(=O)c23)C1 (configuration not stated)	4.86 µg/mL (≈ 10.8 µM)

Structure (SMILES)	IC50
CCOC(=O)c1c(NC(=O)c2cc3ccccc3oc2=O)sc(C)c1-c1ccccc1	> 50 µg/mL (inactive)
O=[N+]([O-])/C=C/c1ccc(-c2ccccc2C(F)(F)F)o1	4.61 µg/mL (≈ 16.3 µM)
O=C(Oc1ccc(Cl)c2cccnc12)c1ccc(Cl)cc1Cl	11.6 µg/mL (≈ 32.9 µM)
Cc1ccc(OC(=O)c2ccc3nc(C)sc3c2)cc1	> 50 µg/mL (inactive)
Cc1c(NC(=O)Nc2cccc(C(F)(F)F)c2)cccc1[N+](=O)[O-]	2.93 µg/mL (≈ 8.64 µM)
COc1cccc(C(=O)Nc2ccc(Cl)c(C(F)(F)F)c2)c1OC	14.5 µg/mL (≈ 40.3 µM)
O=S1(=O)C=CC2ON=C(c3c(Cl)cccc3Cl)C21 (configuration not stated)	10.8 µg/mL (≈ 35.6 µM)
COc1ccc(Cl)cc1CN1CCN(c2ncnc3scc(-c4ccccc4)c23)CC1	4.15 µg/mL (≈ 9.2 µM)
CC(C)(C)c1ccc(OCCNC(=O)c2cccc(Br)c2)cc1	5.19 µg/mL (≈ 13.8 µM)
COc1ccc(Cc2nn3c(-c4ccccc4)nnc3s2)cc1	0.63 µg/mL (≈ 1.95 µM)
COC(=O)COc1ccc(NC(=O)COc2ccc(C)c(C)c2)cc1	3.35 µg/mL (≈ 9.76 µM)
CC1=NN(c2nc(-c3ccc(Cl)cc3)cs2)C(=O)C1C (configuration not stated)	2.07 µg/mL (≈ 6.77 µM)
CCC(C)(C)c1ccc(OCCCn2ccnc2)cc1	1.92 µg/mL (≈ 7.05 µM)
CCn1c2ccccc2c2cc(NC(=O)C34CCC(C)(C(=O)C3)C4(C)C)ccc21 (configuration not stated)	11.5 µg/mL (≈ 29.7 µM)
O=C(NC1C2CC3CC(C2)CC1C3)c1ccc(-c2ccc(Cl)cc2)o1 (configuration not stated)	10.9 µg/mL (≈ 30.8 µM)
COc1nc(SC)nc2sc3c(c12)CCC3	1.47 µg/mL (≈ 5.82 µM)
COc1ccc(-c2cc(=O)oc3cc(OCC(=O)OCc4ccccc4)ccc23)cc1	16.4 µg/mL (≈ 39.3 µM)
N#Cc1ccccc1NC(=O)CSc1nc2cc3ccccc3cc2[nH]1	2.68 µg/mL (≈ 7.48 µM)
O=C1c2cccc3cccc(c23)C(=O)N1CCN1CCN(CCc2ccccc2)CC1	23.8 µg/mL (≈ 57.5 µM)
